Data reported in patent US9636348B2, “6-substituted estradiol derivatives for use in remyelination of nerve axons” (Endece LLC, priority 2011, dated 2017).

Experiments:
[1] = system: Interleukin 20 receptor alpha (IL20RA); assay: Expression profiling (Agilent microarray) in tumor cell lines: IL20RA; assay type: cell-based, human; details: 24 hours, treated vs untreated, average of SKOV-3, A549 and Panc-1
Experimental: (§1) The study includes three human tumor cell lines: A549, Panc-1, and SK-OV-3. The lines are each grown in two flasks cultured to roughly 40% confluence. One of the flasks is treated by addition of compound to the culture media at a various concentrations, i.e. 10 μM, 20 μM 50 μM, 100 μM or 200 μM. The other, mock treated, flask is treated only with the vehicle used to solubilize and deliver the drug. RNA extracted from the pairs of treated and untreated samples is subjected to microarray analysis on Agilent Whole Human Genome Microarrays (G4112F). Each analysis reports the difference in abundance of messenger RNAs for each of the 41,000 specific mRNA detectors on the array. This direct comparison of the treated versus untreated samples for each cell line provides extremely sensitive detection of changes in mRNA abundance resulting from the drug treatment. As each cell line comparison is self-normalized, the results can be compared across the samples with high confidence.
(§2) Three human tumor cell lines, A549, Panc-1, and SK-OV-3, are each grown in two flasks cultured to roughly 40% confluence. One of the flasks is treated by addition of compound to the culture media at concentrations of 10 μM, 50 μM and 100 μM. The other, mock treated, flask is treated only with the vehicle used to solubilize and deliver the drug. All flasks are cultured for a further 24 hours, and then the cells are scraped free and washed in ice-cold PBS, then collected by centrifugation. The harvested cells are immediately frozen, and stored at −80° C. or colder.
(§3) Total RNA is prepared from the frozen tissue samples using Trizol-based cell lysis followed by 65° C. hot phenol extraction and RNeasy chromatography purification. The purified RNA samples are analyzed spectrophotometrically. The concentration of RNA is determined by measuring the absorbance at 260 nm (A260). Given an absorbance of 1 unit at 260 nm corresponds to […].
(§4) All RNAs are labeled using 1 microgram of RNA as input to an Agilent Low Input Labeling reaction.
(§5) Test RNA is labeled with Cy5 (650 nm emitter) and reference RNA is labeled with Cy3 (550 nm emitter) nucleotides. Labeling, hybridizations and subsequent washings are carried out on Agilent H1Av2 human expression chips. The resulting hybridized chips are scanned on an Agilent microarray scanner, and intensity information for each detector spot is extracted from the scanned image using Agilent feature extraction software. […]
(§6) After the ratios have been calculated for the normalized data, the various control and duplicate samples are analyzed to build a model of how reproducible the results are, and how this reproducibility is varies depending on signal strength and noise. […]

[2] = system: Interleukin 28A (IL28A); assay: Expression profiling (Agilent microarray) in tumor cell lines: IL28A; assay type: cell-based, human; details: 24 hours, treated vs untreated, average of SKOV-3, A549 and Panc-1
Experimental: as §1, §2, §3, §4, §5, §6

[3] = system: Myelin basic protein (variant 7) (MBP); assay: Expression profiling (Agilent microarray) in tumor cell lines: MBP; assay type: cell-based, human; details: 24 hours, treated vs untreated, average of SKOV-3, A549 and Panc-1
Experimental: as §1, §2, §3, §4, §5, §6

[4] = system: Myelin oligodentrocyte glycoprotein (variant alpha 4) (MOG); assay: Expression profiling (Agilent microarray) in tumor cell lines: MOG; assay type: cell-based, human; details: 24 hours, treated vs untreated, average of SKOV-3, A549 and Panc-1
Experimental: as §1, §2, §3, §4, §5, §6

[5] = system: Connexin (AF251047); assay: Expression profiling (Agilent microarray) in tumor cell lines: Connexin; assay type: cell-based, human; details: 24 hours, treated vs untreated, average of SKOV-3, A549 and Panc-1
Experimental: as §1, §2, §3, §4, §5, §6

[6] = system: Interleukin 23 receptor (IL23R); assay: Expression profiling (Agilent microarray) in tumor cell lines: IL23R; assay type: cell-based, human; details: 24 hours, treated vs untreated, average of SKOV-3, A549 and Panc-1
Experimental: as §1, §2, §3, §4, §5, §6

[7] = system: oligodendrocyte precursor cells (OPCs); assay: Oligodendrocyte differentiation assay (PLP-EGFP reporter); assay type: cell-based, mouse; details: for Potency in OPC differentiation (in words): 4 days, FIGS. 1 and 3
Experimental: OPC cultures are prepared as described Pedraza, C. E. et al., Glia 56(12), 1339-52 (2008), incorporated herein by reference. Brains are removed from E14.5 C57Bl6/J (expressing PLP-EGFP) mice (Mallon, B. S. et al., J. Neurosci 22(3), 876-85 (2002)), cleaned and cortical hemispheres are isolated. Tissue is then triturated and seeded in T-25 cm^2 flasks at a density of 1 brain (2 cortical hemispheres) per flask. Neurospheres are passaged once after 3 days. Cells from passage 2 are used to prepare two 96-well plates for the primary screen. Following the initial 48 hour incubation in OPC media, the OPCs are treated with 10 μM of 17β-estradiol, compound 4 and compound 21, along with vehicle control DMSO and positive control compounds including […] ciliary neurotrophic factor (CNTF) and 1 μM extracellular-signal-regulated (ERK) kinase inhibitor (MEKi). Cells are treated for a total of 4 days and the media is replaced once at the 48 hour mark with fresh compounds. After the 4 day treatment the cells are fixed with 4% paraformaldehyde and stained with Hoechst 33342 to visualize nuclei. Cells are also stained with anti-GFAP (GFAP=glial fibrillary acidic protein) antibodies to identify astrocytes. Cells are blocked with 3% normal goat serum followed by an overnight incubation of anti-rabbit GFAP antibody (1:500). Cells are labeled with a 1:1000 concentration of secondary goat anti-rabbit Alexa 647 fluorochrome antibody. Images are acquired using the Cellomics Arrayscan VTI. Twenty fields at 10× magnification are acquired per well and the cells expressing EGFP (enhanced green gluorescent protein; mature oligodendrocytes) and GFAP (astrocytes) are evaluated by neuronal profiling algorithm.
The extent of oligodendrocyte maturation is measured by the level of the PLP-EGFP reporter signal, along with the extent of process formation (FIGS. 1-4; legend for FIGS. 1 and 3 are presented below in Table 2). Proteolipid protein (PLP) is used as a biomarker because it is known to be expressed in mature oligodendrocytes and is a component of the myelin sheath. […] Compared to DMSO and all other compounds tested, including CNTF, the extent of process formation is also greatest for compound 21 (FIGS. 2 and 4).

[8] = system: Transmembrane protein 108 (TMEM108); assay: Expression profiling (Agilent microarray) in tumor cell lines: TMEM108; assay type: cell-based, human; details: 24 hours, treated vs untreated, average of SKOV-3, A549 and Panc-1
Experimental: as §1, §2, §3, §4, §5, §6

[9] = system: Oligodentrocyte lineage transcription factor 2 (OLIG2); assay: Expression profiling (Agilent microarray) in tumor cell lines: OLIG2; assay type: cell-based, human; details: 24 hours, treated vs untreated, average of SKOV-3, A549 and Panc-1
Experimental: as §1, §2, §3, §4, §5, §6

[10] = system: Delta/notch-like EFG repeat (DNER); assay: Expression profiling (Agilent microarray) in tumor cell lines: DNER; assay type: cell-based, human; details: 24 hours, treated vs untreated, average of SKOV-3, A549 and Panc-1
Experimental: as §1, §2, §3, §4, §5, §6

[11] = system: genes in signaling pathways involved in proliferation and differentiation of OPCs; assay: Expression profiling in tumor cell lines: overall statement; assay type: cell-based, human; details: SKOV-3, A549 and Panc-1 cells, Table 1
Experimental: as §1
Three human tumor cell lines, A549, Panc-1, and SK-OV-3, are each grown in two flasks cultured to roughly 40% confluence. […]
as §6

SMILES: COCCCCCC[C@@H]1C[C@@H]2[C@H](CC[C@]3(C)C(O)CC[C@@H]23)c2ccc(O)cc21 (stereo partly drawn) [compound 21, (6R,8R,9S,13S,14S)-6-(6-methoxyhexyl)-13-methyl-7,8,9,11,12,13,14,15,16,17-decahydro-6H-cyclopenta[a]phenanthrene-3,17-diol]
- Gene expression IL20RA ([1]; 10 μM): 4.42 log2
- Gene expression IL20RA ([1]; 50 μM): 4.39 log2
- Gene expression IL28A ([2]; 10 μM): 1.44 log2
- Gene expression IL28A ([2]; 50 μM): 2.59 log2
- Gene expression MBP ([3]; 10 μM): 6.07 log2
- Gene expression MBP ([3]; 50 μM): 5.04 log2
- Gene expression MOG ([4]; 10 μM): 5.23 log2
- Gene expression MOG ([4]; 50 μM): 5.55 log2
- Gene expression Connexin AF251047 ([5]; 10 μM): 2.74 log2
- Gene expression Connexin AF251047 ([5]; 50 μM): 3.08 log2
- Gene expression IL23R ([6]; 10 μM): 5.31 log2
- Gene expression IL23R ([6]; 50 μM): 5.46 log2
- Activity to differentiate oligodendrocytes compared to DMSO ([7]; 10 μM, 4 days (96 hours), mouse OPC culture, PLP-EGFP signal): 3 fold
- Activity to differentiate oligodendrocytes compared to positive control CNTF ([7]; 10 μM, 4 days (96 hours), mouse OPC culture, CNTF 10 μM): 1.5 fold
- Activity to differentiate oligodendrocytes compared to positive control MEKi ([7]; 10 μM, 4 days (96 hours), mouse OPC culture, MEKi 1 μM): 2.0 fold
- Potency in OPC differentiation (in words) ([7]; 10 μM): potent
- Extent of process formation ([7]; compared to DMSO and all other compounds tested, including CNTF, FIGS. 2 and 4): greatest
- Gene expression TMEM108 ([8]; 10 μM): 3.92 log2
- Gene expression TMEM108 ([8]; 50 μM): 3.96 log2
- Gene expression OLIG2 ([9]; 10 μM): 6.16 log2
- Gene expression OLIG2 ([9]; 50 μM): 5.32 log2
- Gene expression DNER ([10]; 10 μM): 6.20 log2
- Gene expression DNER ([10]; 50 μM): 4.79 log2
- Effect on genes in signaling pathways involved in proliferation and differentiation of OPCs [11]: up-regulate

SMILES: COC[C@@H]1C[C@@H]2[C@H](CC[C@]3(C)C(O)CC[C@@H]23)c2ccc(O)cc21 (stereo partly drawn) [compound 4, (6R,8R,9S,13S,14S)-6-(methoxymethyl)-13-methyl-7,8,9,11,12,13,14,15,16,17-decahydro-6H-cyclopenta[a]phenanthrene-3,17-diol]
- Gene expression IL20RA ([1]; 50 μM): 3.17 log2
- Gene expression IL20RA ([1]; 100 μM): 3.38 log2
- Gene expression IL28A ([2]; 50 μM): 1.35 log2
- Gene expression IL28A ([2]; 100 μM): 1.96 log2
- Gene expression MBP ([3]; 50 μM): 4.72 log2
- Gene expression MBP ([3]; 100 μM): 4.80 log2
- Gene expression MOG ([4]; 50 μM): 3.99 log2
- Gene expression MOG ([4]; 100 μM): 4.28 log2
- Gene expression Connexin AF251047 ([5]; 50 μM): 3.38 log2
- Gene expression Connexin AF251047 ([5]; 100 μM): 3.56 log2
- Gene expression IL23R ([6]; 50 μM): 3.62 log2
- Gene expression IL23R ([6]; 100 μM): 4.86 log2
- Potency in OPC differentiation (in words) ([7]; 10 μM): potent
- Gene expression TMEM108 ([8]; 50 μM): 3.59 log2
- Gene expression TMEM108 ([8]; 100 μM): 3.62 log2
- Gene expression OLIG2 ([9]; 50 μM): 4.98 log2
- Gene expression OLIG2 ([9]; 100 μM): 4.59 log2
- Gene expression DNER ([10]; 50 μM): 5.16 log2
- Gene expression DNER ([10]; 100 μM): 5.51 log2
- Effect on genes in signaling pathways involved in proliferation and differentiation of OPCs [11]: up-regulate
